Active and inactive are the calls of the source. The calls are words filed in the database; no cut-off is given here.

The record followed here is ChEMBL document CHEMBL4739711, “Method of inhibiting DYRK1B” (2020).

Data set [1] addresses T1, Zinc finger protein GLI1 (Homo sapiens) (UniProt P08151).
T1 sequence (whole entry): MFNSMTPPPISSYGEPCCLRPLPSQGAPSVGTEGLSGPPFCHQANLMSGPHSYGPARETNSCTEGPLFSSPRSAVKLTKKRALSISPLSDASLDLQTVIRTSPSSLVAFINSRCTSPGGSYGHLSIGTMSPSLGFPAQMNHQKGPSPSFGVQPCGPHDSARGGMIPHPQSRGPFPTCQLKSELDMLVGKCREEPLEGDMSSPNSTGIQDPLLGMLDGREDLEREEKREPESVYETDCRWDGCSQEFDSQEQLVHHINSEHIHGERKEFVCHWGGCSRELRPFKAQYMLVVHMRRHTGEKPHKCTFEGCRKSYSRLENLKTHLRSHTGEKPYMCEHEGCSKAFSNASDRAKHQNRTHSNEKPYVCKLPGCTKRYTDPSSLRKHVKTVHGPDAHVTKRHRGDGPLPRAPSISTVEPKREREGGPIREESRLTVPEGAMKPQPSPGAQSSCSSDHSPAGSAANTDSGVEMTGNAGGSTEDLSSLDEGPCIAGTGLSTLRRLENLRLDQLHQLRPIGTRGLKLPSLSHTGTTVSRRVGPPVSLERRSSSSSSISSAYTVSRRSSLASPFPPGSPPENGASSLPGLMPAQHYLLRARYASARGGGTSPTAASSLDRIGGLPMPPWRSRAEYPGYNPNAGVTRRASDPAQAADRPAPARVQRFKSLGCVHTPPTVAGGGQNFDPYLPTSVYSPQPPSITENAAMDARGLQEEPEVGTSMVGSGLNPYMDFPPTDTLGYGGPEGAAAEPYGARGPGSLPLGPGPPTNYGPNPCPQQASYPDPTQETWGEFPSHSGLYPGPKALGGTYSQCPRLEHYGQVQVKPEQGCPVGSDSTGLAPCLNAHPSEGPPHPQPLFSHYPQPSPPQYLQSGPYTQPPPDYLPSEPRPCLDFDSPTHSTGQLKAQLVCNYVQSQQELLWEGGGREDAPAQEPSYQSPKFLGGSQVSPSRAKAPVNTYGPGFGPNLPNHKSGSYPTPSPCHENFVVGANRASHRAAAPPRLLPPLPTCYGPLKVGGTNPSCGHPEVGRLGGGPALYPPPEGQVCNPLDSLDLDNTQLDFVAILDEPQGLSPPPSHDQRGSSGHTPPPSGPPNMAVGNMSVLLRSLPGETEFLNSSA
The data set is described as follows: Inhibition of GLI in SAG stimulated human Daoy cells assessed as prevention of Hedgehog signaling by measuring reduction of PTCH1 expression at 20 uM in presence of siRNA for SUFU by Western blot analysis. The format is tissue-based. (In general: A western blot detects proteins with antibodies after separation by electrophoresis.)

Data set [2] deals with T1, Zinc finger protein GLI1 (Homo sapiens). The data set is described as follows: Inhibition of GLI in SAG stimulated human Daoy cells assessed as prevention of Hedgehog signaling by measuring reduction of GLI expression at 20 uM in presence of siRNA for SUFU by Western blot analysis. The format is tissue-based.
Data set [3] addresses Dual specificity tyrosine-phosphorylation-regulated kinase 1B (Homo sapiens) (UniProt Q9Y463). The data set is described as follows: Inhibition of DYRK1B in SAG stimulated human Daoy cells assessed as prevention of Hedgehog signaling by measuring reduction of GLI expression at 1 to 5 uM by Western blot analysis. As to conditions: dose 1-5 µM. The format is tissue-based.
Data set [4] has the same target. The data set is described as follows: Inhibition of DYRK1B in human A673 cells assessed as prevention of Hedgehog signaling by measuring reduction of GLI expression at 10 to 25 uM by Western blot analysis. The format is cell-based. The following applies: dose 10-25 µM.
Data set [5] shares this target. The data set is described as follows: Inhibition of DYRK1B in human PANC-1 cell assessed as prevention of Hedgehog signaling by measuring reduction of GLI expression at 10 to 25 uM by Western blot analysis. The class given is tissue-based. The following applies: dose 10-25 µM.
In data set [6] the test system is PANC-1. The data set is described as follows: Inhibition of colony formation in human PANC-1 cells at 10 to 25 uM. The format is functional, cell-based. The following applies: dose 10-25 µM.
In data set [7] the target is Dual specificity tyrosine-phosphorylation-regulated kinase 1B (Homo sapiens) (UniProt Q9Y463). The data set is described as follows: Inhibition of DYRK1B in SAG stimulated human Daoy cells assessed as prevention of Hedgehog signaling by measuring reduction of PTCH1 expression at 10 to 25 uM by Western blot analysis. The following applies: dose 10-25 µM. The format is tissue-based.
Sequence of Dual specificity tyrosine-phosphorylation-regulated kinase 1B (Homo sapiens) (Q9Y463 whole entry, looked up): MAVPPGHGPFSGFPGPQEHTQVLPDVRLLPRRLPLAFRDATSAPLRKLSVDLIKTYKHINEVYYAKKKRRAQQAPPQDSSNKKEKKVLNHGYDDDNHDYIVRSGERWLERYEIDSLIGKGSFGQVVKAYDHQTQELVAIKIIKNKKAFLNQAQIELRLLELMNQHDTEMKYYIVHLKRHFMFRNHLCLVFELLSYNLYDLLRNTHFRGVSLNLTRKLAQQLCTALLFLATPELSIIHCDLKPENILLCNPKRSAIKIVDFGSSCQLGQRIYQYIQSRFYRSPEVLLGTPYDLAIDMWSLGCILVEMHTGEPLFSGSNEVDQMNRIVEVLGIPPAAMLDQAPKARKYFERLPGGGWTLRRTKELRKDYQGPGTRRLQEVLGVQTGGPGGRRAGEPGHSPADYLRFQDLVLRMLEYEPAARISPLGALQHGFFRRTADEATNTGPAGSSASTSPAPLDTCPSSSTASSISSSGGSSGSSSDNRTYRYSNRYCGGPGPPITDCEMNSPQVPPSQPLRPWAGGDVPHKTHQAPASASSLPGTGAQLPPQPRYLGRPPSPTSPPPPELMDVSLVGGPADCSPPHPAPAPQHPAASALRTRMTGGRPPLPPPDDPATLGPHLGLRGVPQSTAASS

In data set [8] the target is Protein smoothened (Mus musculus) (UniProt P56726). The data set is described as follows: Inhibition of SMO in SAG stimulated mouse BCC cells assessed as prevention of Hedgehog signaling by measuring reduction of GLI expression at 10 to 25 uM by Western blot analysis. The format is cell-based. As to conditions: dose 10-25 µM.
Sequence of Protein smoothened (Mus musculus) (P56726 whole entry): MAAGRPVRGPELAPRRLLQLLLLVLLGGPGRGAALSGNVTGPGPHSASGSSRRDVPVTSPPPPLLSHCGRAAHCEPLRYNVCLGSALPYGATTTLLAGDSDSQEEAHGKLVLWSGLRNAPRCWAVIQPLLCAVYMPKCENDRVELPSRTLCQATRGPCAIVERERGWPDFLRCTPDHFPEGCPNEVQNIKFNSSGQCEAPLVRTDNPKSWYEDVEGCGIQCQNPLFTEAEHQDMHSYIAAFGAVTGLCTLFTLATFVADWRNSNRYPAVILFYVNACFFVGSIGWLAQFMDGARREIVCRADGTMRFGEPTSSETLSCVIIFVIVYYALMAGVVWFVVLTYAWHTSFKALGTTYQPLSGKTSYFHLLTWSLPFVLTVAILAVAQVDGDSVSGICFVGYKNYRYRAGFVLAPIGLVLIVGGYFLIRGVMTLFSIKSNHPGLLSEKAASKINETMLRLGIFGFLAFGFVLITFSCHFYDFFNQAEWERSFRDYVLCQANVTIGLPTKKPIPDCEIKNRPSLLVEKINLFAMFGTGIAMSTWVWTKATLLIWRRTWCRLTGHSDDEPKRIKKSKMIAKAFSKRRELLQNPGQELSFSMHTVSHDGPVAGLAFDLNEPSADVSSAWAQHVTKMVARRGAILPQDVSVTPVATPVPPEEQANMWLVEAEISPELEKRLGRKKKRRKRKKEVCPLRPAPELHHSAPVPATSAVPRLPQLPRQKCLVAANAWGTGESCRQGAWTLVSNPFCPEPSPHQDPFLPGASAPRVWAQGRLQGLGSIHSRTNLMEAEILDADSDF
Data set [9] concerns PANC-1. The data set is described as follows: Toxicity in human PANC-1 cells assessed as effect on cell viability at 10 to 25 uM. As to conditions: panc-1, 25 µM, dose 10-25 µM. The class given is cell-based.
Data set [10] addresses Dual specificity tyrosine-phosphorylation-regulated kinase 1B (Homo sapiens) (UniProt Q9Y463). The data set is described as follows: Inhibition of DYRK1B in SAG stimulated human Daoy cells assessed as prevention of Hedgehog signaling by measuring reduction of GLI expression at 10 to 25 uM by Western blot analysis. The class given is tissue-based. As to conditions: dose 10-25 µM.

Data set [11] deals with PANC-1. The data set is described as follows: Toxicity in human PANC-1 cells assessed as effect on cell viability at 0.5 uM. The format is cell-based. The following applies: panc-1, 0.5 µM.
The test system of data set [12] is PANC-1. The data set is described as follows: Inhibition of colony formation in human PANC-1 cells at 0.5 uM. The class given is functional, cell-based.

`CN(C)c1ccccc1CN1CCCN(Cc2ccccc2N(C)C)C1c1ccncc1`: the inhibition entry in [1] and in data set [2] was “Active” throughout.

Consider `FC(F)(F)c1ccc2[nH]c(Nc3ncccn3)nc2c1`, for which, in data set [3], the inhibition result is “Active”.

With `COc1ccc2c(c1)[nH]c1c(C)nccc12` [HARMINE], the inhibition entry (in data set [4]; in data set [5]; in the data set with PANC-1 [6]; in data set [7]; in data set [8]; in data set [10]) was “Active” in each case. The Activity result in the data set on PANC-1 [9] is listed as “Non-Toxic”.

Turning to `CS(=O)(=O)c1ccc(C(=O)Nc2ccc(Cl)c(-c3ccccn3)c2)c(Cl)c1` [VISMODEGIB], the Activity result in the data set on PANC-1 [11] was “Non-Toxic”. The inhibition entry with PANC-1 [12] is “inactive”.
